In US20090186838A1, “Amphotericin Derivatives” (Eidgenössische Technische Hochschule Zürich, priority 2006, published 2009):
In brackets after ≈: the same amount, converted by molar mass.

Tests used:
DSY-294 C. albican CI = experiment: MIC determination in Candida strain DSY-294; assay type: cell-based, Candida albicans; conditions: Candida albicans
Protocol: (§1) In Vitro Antifungal Activity. MIC values for various strains were determined in accordance with the standard protocol from the National Committee of Clinical Laboratory Standards but using YEPD liquid medium instead of RPMI-1640 medium (National Committee of Clinical Laboratory Standards (Reference Method for Broth Dilution Antifungal Susceptibility Testing of Yeast, M27-A2, Approved Standard-Second Edition, Volume 22, Number 15, 1995). AmB was used as a reference. The strains were cultivated overnight in 5 mL YEPD liquid medium at 30 to 37° C. (30° C. for the strain BY4741; 37° C. for the strain DSY1764) with constant shaking. The saturated cultures were diluted to an ODB600 of 0.1 (3×10P^7 cells/mL). Using 24 wells plate, each well was prepared by adding 1% (12 μL) of DMSO solution of the tested polyene macrolide with 1% (12 μL) yeast cells solution and completed with YEPD (1.176 mL). The plates were sealed with Parafilm and then incubated for 18 to 36 hours at 30 to 37° C. (18 hours at 30° C. for the strain BY4741; 36 hours at 37° C. for the strain DSY1764). The optical density was read at 600 nm using 1.5 mL cuvettes. The MIC value was defined as the drug concentration needed to inhibit growth, less than 5% compared to a drug-free culture.
(§2) MIC values of the polyene macrolides 3, 9 and 10 (Diamine-AmB and its ester and diamide derivative, respectively) in various Candida strains including an AmB-resistant strain C. albicans (DSY1764, with the genotype erg3AΔ::hisG/erg3BΔ::hisG erg11Δ::hisG/erg11Δ::hisG-URA3-hisG) were determined.

[1] = system: DSY-654 C. albican mutant cdr1/2; experiment: MIC determination in Candida strain DSY-654; assay type: cell-based, Candida albicans; conditions: Candida albicans
Protocol: as §1, §2

DSY-565 C. glabrata CI = experiment: MIC determination in Candida strain DSY-565; assay type: cell-based; conditions: Nakaseomyces glabratus
Protocol: as §1, §2

human erythrocytes = experiment: Hemolytic assay (EH50); assay type: cell-based; conditions: concentration that led to 50% hemolysis of human erythrocytes; one hour at 37° C.
Protocol: Hemolytic Assay. The hemotoxicity of the polyene macrolide derivatives of the invention was determined by measuring the toxicity towards human erythrocytes (EH50 value) using an established assay (Kinsky, S. C. et al., Biochem. Biophys. Res. Comm. 1962, 9, 503). Human blood, anticoagulated with citrate or EDTA, was centrifuged (2000×g) at 4° C. for 10 minutes. The pellets were washed three times with PBS buffer (pH 7.2 with 2 g/L glucose) and then diluted to a concentration of 4% (4×10^8 cells/mL). All experiments were done in triplo and the total volume for the hemolysis tubes was 1.4 ml. The solutions were prepared by adding 1% (14 μL) of DMSO solution of the tested compound with […] of PBS buffer and completed with 750 μL of 4% erythrocytes. After one hour incubation at 37° C., the samples were centrifuged (1500×g) at 4° C. for 5 min and the absorbance of the supernatant was measured at 560 nm. The concentration that led to 50% hemolysis (EH50) was intrapolated graphically. The value for the 100% hemolysis was obtained by the treatment with 100 μM of AmB.
The toxicity of AmB (1a) and the polyene macrolides 3, 9 and 10 towards human erythrocytes was examined using the above described hemolysis assay (Table 3).

DSY-296 C. albican CI = experiment: MIC determination in Candida strain DSY-296; assay type: cell-based, Candida albicans; conditions: Candida albicans
Protocol: as §1, §2

`COC(=O)[C@H]1[C@@H]2C[C@@H](O[C@@H]3O[C@H](C)[C@@H](O)[C@H](N(CCCN)CCCN)[C@@H]3O)/C=C/C=C/C=C/C=C/C=C/C=C/C=C/[C@H](C)[C@@H](O)[C@@H](C)[C@H](C)OC(=O)C[C@H](O)C[C@H](O)CC[C@@H](O)[C@H](O)C[C@H](O)C[C@](O)(C[C@@H]1O)O2` [compound 9, N,N-Di-(3-aminopropyl)-AmB Methyl Ester] was tested, and the MIC (DSY-294 C. albican CI) was 0.25 µM (≈ 0.263 µg/mL), the MIC [1] was 0.25 µM (≈ 0.263 µg/mL) and the MIC (DSY-565 C. glabrata CI) was 0.25 µM (≈ 0.263 µg/mL). The EH50 (human erythrocytes) was 50 µM and the MIC (DSY-296 C. albican CI) was 0.1 µM (≈ 0.105 µg/mL).

Molecule `C[C@@H]1[C@H](O)[C@@H](C)/C=C/C=C/C=C/C=C/C=C/C=C/C=C/[C@H](O[C@@H]2O[C@H](C)[C@@H](O)[C@H](N(CCCN)CCCN)[C@@H]2O)CC2O[C@](O)(C[C@@H](O)C[C@@H](O)[C@H](O)CC[C@@H](O)C[C@@H](O)CC(=O)O[C@H]1C)C[C@H](O)[C@H]2C(=O)NCCN` [compound 10, 16-(N′-(2-Aminoethyl)-carboxamide)-N,N-di-(3-aminopropyl)-AmB] has an MIC (DSY-294 C. albican CI) of 1 µM (≈ 1.08 µg/mL), an MIC (DSY-565 C. glabrata CI) of 0.5 µM (≈ 0.54 µg/mL) and an EH50 (human erythrocytes) of 30 µM. The MIC (DSY-296 C. albican CI) was 0.75 µM (≈ 0.81 µg/mL).
